No end group written: not given here. *: point of attachment. Biotin = O=C1N[C@H]2[C@H](CS[C@H]2CCCCC(=O)*)N1
Assays:
[1] = test system: bilabeled fluorescent probe sequence; details: human EBV-transformed B lymphoid cell line, biotinylated W6/32, streptavidin bridge
Protocol: Following incubation of cells (10^6/ml) with a biotin conjugate of primary antibody pan-specific for human Class I (W6/32) and washing in phosphate-buffered saline (pH 7.2; PBS), the cell preparation was treated with a large excess of unmodified tetravalent streptavidin (Sigma; 10 μl each of 100 μM streptavidin per 100 μl of cells at 10^6/ml) for 30 minutes at room temperature, and rewashed in PBS.
Following this, a biotinylated template oligonucleotide was added, such that its terminal biotin group becomes bound to free sites on the surface streptavidin. […] The DNA template sequence used in this example corresponds to a transcribed segment of human papillomavirus (HPV), of sequence: 5′-Biotin-[sequence] […] As a control, a scrambled version of this sequence was used: 5′ Biotin-[sequence]

trastuzumab [2] = experiment: Flow analysis of trastuzumab mimotope placed on HER-2-negative MU89 cells via streptavidin bridge; format: cell-based; details: MU89 melanoma cells, W6/32 biotinylated primary antibody, fluoresceinated goat anti-kappa read-out
From the text: In common with Example 11, for the repurposing of an antibody epitope by placement of a peptide mimotope on a cell surface, a surface marker for the cell type of interest was defined. […] The complex (biotinylated template-streptavidin-primary antibody) was then assembled on MU89 surface. Following that procedure and washing, biotinylated mimotope (Biotin-[…] ELWELSH; SEQ ID NO:35) was allowed to bind to the surface streptavidin. […] Subsequently, since trastuzumab is a humanized antibody with kappa light chains, a fluoresceinated goat anti-kappa antibody served to provide the final fluorescent read-out enabling flow analysis. […] However, it should be noted that while an amplification effect for fluorescent signal results from the multi-layered sandwich technique of this approach, the overall signal is ultimately linked to the level of expression of the primary antibody target.

trastuzumab [3] = experiment: ELISA of biotinylated mimotope peptides on streptavidin plates titrated with trastuzumab; format: binding; details: 400 nM biotinylated peptide coating, trastuzumab 2-fold serial dilutions
Protocol: For intact mimotopes and their analogs, peptides with an N-terminal biotin label and a flexible spacer composed of serine and glycine residues (typically […]; SEQ ID NO:110) were used.
ELISA plates coated with tetravalent streptavidin were obtained for the assay, either from a commercial source (such as Thermofisher) or made by incubating polystyrene 96-well ELISA plates with solutions of streptavidin in PBS (1 μM) 16 hours/4° C., followed by blocking with a solution of bovine serum albumin (BSA) at 10 mg/ml in PBS pH 7.2, also for 16 hours/4° C. Plates were then emptied of solutions and washed three times with 100 μl PBS containing 0.05% Tween 20 (PBS-Tw20).
A suitable dilution series of the biotinylated peptides of interest was prepared in PBS, and at least duplicates (or higher numbers of replicates) were added to pre-designated wells in 100 μl volumes, and the plate incubated for 2 hours at room temperature (covered in Saran wrap). […] After a 30 minute incubation, reactions were stopped with 1 M sulfuric acid, and results assessed with an automated plate reader for absorbances at 450 nm. Final data was compiled from averaged replicates for each determination with subtraction of absorbances observed in wells where no target peptide antigen was added. […]

trastuzumab [4] = details: L1 Q substitution; cited from earlier work
[5] = test system: biotinylated anti-BRD7 Fab (bFab); experiment: Direct Binding Assay using streptavidin magnetic beads, denaturing gel read-out; parameters: species or system murine; details: with vs without bFab, PBSM
Protocol: Aptamers were incubated with bFab (2.5-fold molar excess), then bound to SAMBs. Supernatants were taken, and the SAMBs washed 3 times. Bound material was eluted with 0.1 M NaOH, and then precipitated, washed, dried, and reconstituted before loading samples on a denaturing acrylamide gel.
To assess binding of 10th-cycle singlet aptamers to the selective agent (the Fab target), direct binding assays were carried out. Here, single-stranded aptamer preparations (self-annealed as usual) were incubated with or without biotinylated Fab fragments in PBSM, followed by adsorption onto streptavidin magnetic beads. After this incubation period, the beads were magnetically separated, and the supernatants retained. […]
Despite successful in situ assembly of binary aptamers upon the target to which they were bound (as in Example 1), it could not be assumed that binary aptamers formed in solution would be capable of binding the same targets. This was assessed using the same aptamers as used in direct binding tests (Example 3; 228/10AptR1 and 229/10AptL3), but where the aptamers were initially ligated together by means of the same splint oligonucleotide as used in Example 1. […]

## 5′ Biotin-TAGCGCAAATAAGCCGCCAGAAC GATGATATAAACAGCATTAGGTAAGCTACAACA [control scrambled sequence, reference compound]
[1]
  fluorescence signal of bilabeled probe hybridized to surface template: not

## Bio-SGGGSGGGQLGPYELWELSH (Biotin-SGGGSGGGQLGPYELWELSH) [unmodified mimotope]
Trastuzumab [2]
  fluorescent signal from trastuzumab: clear-cut fluorescent signal

## Bio-SGGGSGGGQLGPYELWEL CH (Biotin-SGGGSGGGQLGPYELWELCH) [cysteine-modified mimotope]
Trastuzumab [3]
  recognition by Trastuzumab compared with the unmodified mimotope: almost the same extent
  slope of trastuzumab titration curve, less than that seen for the unmodified peptide: approximately 10%

## QLGPYEL WELSH (QLGPYELWELSH; segment of the mimotope) [mimotope for trastuzumab]
Trastuzumab [4]
  binding affinity relative to the initial mimotope LLGPYELWEL SH: higher binding affinity

## 5′-Biotin-TAACTGTCAAAAGCCACTGTGTC CTGAAGAAAAGCAAAGACATCTGGACAAAAAGC
[1]
  fluorescence signal of bilabeled probe hybridized to surface template: significant signal

B1: GCAAAGACATCTGGACA CGCCACTTATAGTCTACGTGAAGCACTGCGCTGGAACAGCCTAAAAAAGGAGAAGG AGACTTAGAGGC (nucleic acid)
DNA: GCAAAGACATCTGGACACGCCACTTATAGTCTACGTGAAGCACTGCGCTGGAACAGCCTAAAAAAGGAGAAGGAGACTTAGAGGC
modifications: chemistry not given here
[5]
  binding to biotinylated Fab (bound material eluted from streptavidin magnetic beads): not
